For orientation: IC50 means the midpoint of a concentration-inhibition curve. Low readings indicate higher potency, high ones lower potency. The term MRT denotes a mean duration of stay, worked out from the concentration-time curve.

Experimental findings from patent US11136324B2, “Substituted imidazoles as apoptosis signal regulating kinase 1 inhibitors” (Jiangsu Hansoh Pharmaceutical Group Co., Ltd., priority 2017, dated 2021) are described below.

The target in one data set is ASK1 kinase (Homo sapiens (Human), UniProt Q99683). As to the kind of experiment: ASK1 enzymatic test (TR-FRET). It counts as biochemical. The note with it: ASK1 kinase activity. The protocol:
In this test, the fluorescence-resonance energy transfer (TR-FRET) method was used to determine the inhibition effect of the test compounds on ASK1 kinase activity, and the half maximal inhibitory concentration IC50 of the compounds on ASK1 kinase activity was obtained.
1) 1˜5 μL of ASK1 enzyme solution was added to a 384-well plate, and the final concentration of the enzyme was 0.220 nM.
2) 1˜5 μL of gradient-diluted compound solution was added.
3) 1˜5 μL of a substrate mixture containing substrate polypeptides (final concentration: 100˜5000 nM) and ATP (final concentration: 100˜1000 uM) were added.
4) The mixture was incubated at room temperature for 0.5 to 5 hours.
5) 10 μL of EDTA and test solution containing labeled antibody were added, and the plate was incubated at room temperature for 2 to 24 hours.
6) The fluorescence signal value of each well was determined by a microplate reader at about 615 nm and 665 nm.
7) The inhibition rate was calculated by the fluorescence signal value.
8) The IC50 of the compound was obtained by curve fitting according to the inhibition rate at different concentrations.
For orientation: In TR-FRET formats the signal depends on donor and acceptor labels being close together.

Data set [1] can be described thus: Pharmacokinetic (PK) assay in mice. It counts as in vivo. The following applies: Balb/c male mice, single intragastric administration, 5 mg/kg, plasma; for AUC(0-t) / AUC(0-inf) / half-life / MRT / Cmax: mouse, po; for AUC(0-t): read-out: Area under curve AUC0-t; for AUC(0-inf): read-out: Area under curve AUC0-∞; for half-life: read-out: Half-life t1/2 (converted); for MRT: read-out: Mean residence time MRT; for Cmax: read-out: Plasma concentration Cmax. The protocol: 2. Pharmacokinetic (PK) Assay in Mice
The pharmacokinetic test of the preferred examples of the present invention in mice was carried out in Balb/c male mice (Shanghai Jiesijie Laboratory Animal Co., LTD).
Administration mode: single intragastric administration.
Administration dosage: 5 mg/10 ml/kg.
Formulation: 0.5% CMC-Na, ultrasonic dissolution.
Sampling points: 0.5, 1, 2, 4, 6, 8 and 24 hours after administration.
1) 0.1 mL of blood was taken from the orbit, placed in a K2EDTA tube, and centrifuged for 5˜20 min at room temperature at 1000˜3000×g to separate the plasma, which was then stored at −80° C.
2) 160 μL of acetonitrile was added to 40 μL of plasma sample for precipitation, and then the mixture was centrifuged for 5˜20 minutes at 500˜2000×g.
3) 100 μL, of processed supernatant was taken and analyzed by LC/MS/MS assay to determine the concentration of the test compound.
LC-MS/MS Assay: • Liquid chromatography condition: Shimadzu LC-20AD pump • Mass spectrometry condition: AB Sciex API 4000 mass spectrometer • Chromatographic column: phenomenex Gemiu 5 μm C18 50×4.6 mm • Mobile phase: solution A was 0.1% aqueous formic acid solution, and solution B was acetonitrile • Flow rate: 0.8 mL/min • Elution time: 0-3.5 minutes gradient elution
The main parameters were calculated using WinNonlin 6.1.

ASK1 kinase, sequence (Q99683 whole entry): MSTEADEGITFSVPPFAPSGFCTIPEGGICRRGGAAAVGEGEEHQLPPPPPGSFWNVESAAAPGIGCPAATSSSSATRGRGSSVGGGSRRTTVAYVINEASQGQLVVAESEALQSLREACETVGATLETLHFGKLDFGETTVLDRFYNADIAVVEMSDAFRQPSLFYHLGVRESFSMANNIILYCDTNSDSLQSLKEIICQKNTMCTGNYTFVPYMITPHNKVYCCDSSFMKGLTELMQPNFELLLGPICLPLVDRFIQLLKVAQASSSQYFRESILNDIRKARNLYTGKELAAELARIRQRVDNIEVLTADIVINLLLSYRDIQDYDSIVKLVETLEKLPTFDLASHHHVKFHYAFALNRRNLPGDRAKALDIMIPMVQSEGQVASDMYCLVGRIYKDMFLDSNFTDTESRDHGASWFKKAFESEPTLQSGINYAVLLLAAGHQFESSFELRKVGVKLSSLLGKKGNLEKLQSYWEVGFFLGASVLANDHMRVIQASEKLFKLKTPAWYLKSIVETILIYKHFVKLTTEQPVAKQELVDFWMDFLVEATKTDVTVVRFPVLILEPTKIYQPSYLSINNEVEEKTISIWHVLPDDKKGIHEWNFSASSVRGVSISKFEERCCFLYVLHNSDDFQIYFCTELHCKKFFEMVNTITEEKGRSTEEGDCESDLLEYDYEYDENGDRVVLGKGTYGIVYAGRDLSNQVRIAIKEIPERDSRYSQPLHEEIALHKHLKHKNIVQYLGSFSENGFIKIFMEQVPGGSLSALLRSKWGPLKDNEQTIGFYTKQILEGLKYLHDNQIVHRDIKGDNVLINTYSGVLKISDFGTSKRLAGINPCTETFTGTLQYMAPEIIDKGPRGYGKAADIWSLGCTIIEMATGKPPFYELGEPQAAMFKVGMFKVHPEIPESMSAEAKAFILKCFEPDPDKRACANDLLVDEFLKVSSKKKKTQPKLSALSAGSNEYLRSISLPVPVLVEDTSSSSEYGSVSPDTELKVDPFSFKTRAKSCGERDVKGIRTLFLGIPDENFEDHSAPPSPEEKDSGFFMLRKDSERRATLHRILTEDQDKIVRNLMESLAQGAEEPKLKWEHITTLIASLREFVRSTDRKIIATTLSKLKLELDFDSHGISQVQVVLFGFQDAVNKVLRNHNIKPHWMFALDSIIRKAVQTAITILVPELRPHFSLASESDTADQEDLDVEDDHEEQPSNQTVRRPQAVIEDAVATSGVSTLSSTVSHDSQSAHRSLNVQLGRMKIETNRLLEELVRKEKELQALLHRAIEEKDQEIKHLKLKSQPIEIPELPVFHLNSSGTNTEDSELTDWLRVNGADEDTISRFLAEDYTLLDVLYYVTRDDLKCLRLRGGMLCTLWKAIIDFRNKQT

Consider `Cc1cc(F)c(C(=O)Nc2cccc(-c3nnc4n3[C@@H](C)CC4)n2)cc1-n1cnc(C2CC2)c1` [Example 9, (S)-5-(4-Cyclopropyl-1H-imidazol-1-yl)-2-fluoro-4-methyl-N-(6-(5-methyl-6,7-dihydro-5H-pyrrolo[2,1-c][1,2,4]triazol-3-yl)pyridin-2-yl)benzamide], for which the IC50 at ASK1 kinase was 5 nM. In data set [1], the Peak time tmax is 0.5 h, the AUC(0-t) was 38100 ng·h/mL, the AUC(0-inf) was determined as 38400 ng·h/mL and the half-life was 4.4 h. Further, in data set [1], the MRT came to 5.5 h and the Cmax amounted to 4370 ng/mL.

In the case of `Cc1cc(F)c(C(=O)Nc2cccc(-c3nnc4n3[C@@H](C)CC4)n2)cc1-n1cnc(C(C)(C)C)c1` [Example 16, (S)-5-(4-(tert-Butyl)-1H-imidazol-1-yl)-2-fluoro-4-methyl-N-(6-(5-methyl-6,7-dihydro-5H-pyrrolo[2,1-c][1,2,4]triazol-3-yl)pyridin-2-yl)benzamide], on ASK1 kinase, the IC50 was found to be 4.1 nM. In data set [1], the Peak time tmax was determined as 1 h, the AUC(0-t) is 13600 ng·h/mL, the AUC(0-inf) is 13900 ng·h/mL and the half-life was 1.4 h. For the same compound, in data set [1], the mean residence time MRT turned out to be 2 h and the Cmax was determined as 6580 ng/mL.

At ASK1 kinase, `Cc1cc(F)c(C(=O)Nc2cccc(-c3nnc4n3CC(C)C4)n2)cc1-n1cnc(C2CC2)c1` (stereo not drawn) [Example 33, 5-(4-Cyclopropyl-1H-imidazol-1-yl)-2-fluoro-4-methyl-N-(6-(6-methyl-6,7-dihydro-5H-pyrrolo[2,1-c][1,2,4]triazol-3-yl)pyridin-2-yl)benzamide] gave an IC50 of 7.2 nM. In data set [1], the Peak time tmax was 0.5 h, the AUC(0-t) worked out at 47900 ng·h/mL, the AUC(0-inf) is 48600 ng·h/mL and the half-life was 4.7 h. In data set [1], the MRT worked out at 5.9 h and the Cmax came to 5170 ng/mL.

In turn, `CCC[C@H]1CCc2nnc(-c3cccc(NC(=O)c4cc(-n5cnc(C6CC6)c5)c(C)cc4F)n3)n21` [Example 60, (S)-5-(4-Cyclopropyl-1H-imidazol-1-yl)-2-fluoro-4-methyl-N-(6-(5-propyl-6,7-dihydro-5H-pyrrolo[2,1-c][1,2,4]triazol-3-yl)pyridin-2-yl)benzamide] came in with an IC50 against ASK1 kinase of 6.6 nM. In data set [1], the Peak time tmax is 1 h, the AUC(0-t) was 29000 ng·h/mL, the AUC(0-inf) worked out at 29900 ng·h/mL and the half-life is 1.3 h. Also, in data set [1], the MRT turned out to be 2.6 h and the Cmax came to 9180 ng/mL.

As for `Cc1cc(F)c(C(=O)Nc2cccc(-c3nnc4n3[C@H](C)CC4)n2)cc1-n1cnc(C2CC2)c1` [Example 8, (R)-5-(4-Cyclopropyl-1H-imidazol-1-yl)-2-fluoro-4-methyl-N-(6-(5-methyl-6,7-dihydro-5H-pyrrolo[2,1-c][1,2,4]triazol-3-yl)pyridin-2-yl)benzamide], half-maximal inhibition against ASK1 kinase (IC50) required 1.8 nM. Besides, in data set [1], the Peak time tmax is 1 h, the AUC(0-t) was determined as 29700 ng·h/mL, the AUC(0-inf) is 29800 ng·h/mL and the half-life was 2.7 h. Moreover, in data set [1], the MRT is 4.6 h and the Cmax came to 4810 ng/mL.

On ASK1 kinase, `CCC[C@@H]1CCc2nnc(-c3cccc(NC(=O)c4cc(-n5cnc(C6CC6)c5)c(C)cc4F)n3)n21` [Example 59, (R)-5-(4-Cyclopropyl-1H-imidazol-1-yl)-2-fluoro-4-methyl-N-(6-(5-propyl-6,7-dihydro-5H-pyrrolo[2,1-c][1,2,4]triazol-3-yl)pyridin-2-yl)benzamide] yielded an IC50 of 2.9 nM. In data set [1], the Peak time tmax stood at 1 h, the AUC(0-t) is 19700 ng·h/mL, the AUC(0-inf) amounted to 20200 ng·h/mL and the half-life was 1.4 h. In addition, in data set [1], the MRT turned out to be 2.3 h and the Cmax was 7590 ng/mL.

`Cc1cc(F)c(C(=O)Nc2cccc(-c3nnc4n3[C@H](CF)CC4)n2)cc1-n1cnc(C2CC2)c1` [Example 51, (S)-5-(4-Cyclopropyl-1H-imidazol-1-yl)-2-fluoro-N-(6-(5-(fluoromethyl)-6,7-dihydro-5H-pyrrolo[2,1-c][1,2,4]triazol-3-yl)pyridin-2-yl)-4-methylbenzamide] displayed an IC50 on ASK1 kinase of 4.9 nM. Also, in data set [1], the Peak time tmax was 1 h, the AUC(0-t) stood at 57200 ng·h/mL, the AUC(0-inf) was determined as 57700 ng·h/mL and the half-life is 3.5 h. Moreover, in data set [1], the MRT amounted to 5.8 h and the Cmax worked out at 5890 ng/mL.

`Cc1cc(F)c(C(=O)Nc2cccc(-c3nnc4n3[C@H](C)CC4)n2)cc1-n1cnc(C(C)C)c1` [Example 13, (R)-2-Fluoro-5-(4-isopropyl-1H-imidazol-1-yl)-4-methyl-N-(6-(5-methyl-6,7-dihydro-5H-pyrrolo[2,1-c][1,2,4]triazol-3-yl)pyridin-2-yl)benzamide]: the IC50 against ASK1 kinase turned out to be 2.7 nM. For the same compound, in data set [1], the Peak time tmax amounted to 1 h, the AUC(0-t) was found to be 11700 ng·h/mL, the AUC(0-inf) turned out to be 11800 ng·h/mL and the half-life was 1 h. Also, in data set [1], the MRT was 2 h and the Cmax turned out to be 5060 ng/mL.

On ASK1 kinase, `Cc1cc(F)c(C(=O)Nc2cccc(-c3nnc4n3CC(C)(C)C4)n2)cc1-n1cnc(C2CC2)c1` [Example 32, 5-(4-Cyclopropyl-1H-imidazol-1-yl)-N-(6-(6,6-dimethyl-6,7-dihydro-5H-pyrrolo[2,1-c][1,2,4]triazol-3-yl)pyridin-2-yl)-2-fluoro-4-methylbenzamide] came in with a half-inhibitory concentration (IC50) of 4.9 nM. In data set [1], the Peak time tmax turned out to be 1 h, the AUC(0-t) was found to be 46400 ng·h/mL, the AUC(0-inf) came out at 46400 ng·h/mL and the half-life was 2.6 h. For the same compound, in data set [1], the MRT stood at 3.9 h and the Cmax came out at 10900 ng/mL.

As to `C=CC1CCc2nnc(-c3cccc(NC(=O)c4cc(-n5cnc(C6CC6)c5)c(C)cc4F)n3)n21` (stereo not drawn) [Example 38, 5-(4-Cyclopropyl-1H-imidazol-1-yl)-2-fluoro-4-methyl-N-(6-(5-vinyl-6,7-dihydro-5H-pyrrolo[2,1-c][1,2,4]triazol-3-yl)pyridin-2-yl)benzamide], the IC50 against ASK1 kinase turned out to be 4.1 nM. Further, in data set [1], the Peak time tmax amounted to 0.5 h, the AUC(0-t) amounted to 129000 ng·h/mL, the AUC(0-inf) is 130000 ng·h/mL and the half-life is 2.8 h. Moreover, in data set [1], the MRT came out at 5.1 h and the Cmax is 19400 ng/mL.

Compound `Cc1cc(F)c(C(=O)Nc2cccc(-c3nnc4n3[C@@H](C)CC4)n2)cc1-n1cnc(C(C)C)c1` [Example 14, (S)-2-Fluoro-5-(4-isopropyl-1H-imidazol-1-yl)-4-methyl-N-(6-(5-methyl-6,7-dihydro-5H-pyrrolo[2,1-c][1,2,4]triazol-3-yl)pyridin-2-yl)benzamide] returned an IC50 against ASK1 kinase of 9 nM. For the same compound, in data set [1], the Peak time tmax is 1 h, the AUC(0-t) came to 21000 ng·h/mL, the AUC(0-inf) amounted to 21000 ng·h/mL and the half-life is 1.3 h. Besides, in data set [1], the MRT came out at 2.8 h and the Cmax was determined as 6150 ng/mL.

Consider `Cc1cc(F)c(C(=O)Nc2cccc(-c3nnc4n3CCC4)n2)cc1-n1cnc(C2CC2)c1` [Example 1, 5-(4-cyclopropyl-1H-imidazol-1-yl)-N-(6-(6,7-dihydro-5H-pyrrolo[2,1-c][1,2,4]triazol-3-yl)pyridin-2-yl)-2-fluoro-4-methylbenzamide], for which, at ASK1 kinase, inhibition was half-maximal at 6 nM (IC50). For the same compound, in data set [1], the Peak time tmax was determined as 0.5 h, the AUC(0-t) is 104000 ng·h/mL, the AUC(0-inf) turned out to be 104000 ng·h/mL and the half-life was 2.9 h. In data set [1], the MRT was 4.2 h and the Cmax came out at 18300 ng/mL.
